In patent publication US20150259371A1, “METHODS AND COMPOUNDS FOR INHIBITING GLYCOSYLTRANSFERASES” (SIMON FRASER UNIVERSITY, priority 2010, published 2015):

How the values were obtained:
[1] = tested on: N-glycosylation in COS-7 cells; assay: Lectin blots of glycans in treated COS-7 cells; format: cell-based, African green monkey; conditions: COS-7, 0-1000 μM, 24 h
Experimental: Westernlectin blots: Samples were run on 10% SDS polyacrylamide gels and transferred onto nitrocellulose membranes (Biorad). Membranes were blocked for 1 h in PBS containing 0.1% Tween-20 (PBS-T) containing 1% (unless otherwise stated) bovine serum albumin (BSA), and probed with the appropriate primary antibody or lectin in 1% BSA in PBS-T overnight at 4° C. Blots were washed for 1 hr with PBS-T, and blocked for a further 30 min with 1% BSA in PBS-T at room temperature. They were then probed with the appropriate horseradish peroxidise (HRP)-conjugated secondary antibodyprobe in 1% BSA in PBS-T at room temperature for 1 h, followed by washing in PBS-T for 1 h. […]
Antibodieslectins: O-GlcNAc levels were assessed primarily using CTD110.6 (Covance), but RL2 (Abcam) and HGAC85 (Abcam) were also tested. […] OGA levels were assessed using a polyclonal anti-OGA antibody which was a kind gift from Dr. Gerald Hart and OGT levels using H-300 (Santa Cruz Biotechnology). nup62 was probed using mAb 414 (Covance). […]
To assess whether cell surface glycosylation could be affected through changes in UDP-GlcNAc availability or inhibition of GlcNAc transferases within the secretory pathway, we treated COS-7 cells with a range of Ac-5SGlcNAc concentrations and evaluated the effect on various glycans using lectin blots. […]

[2] = tested on: UDP-sugar nucleotide pools in COS-7 cells; assay: UDP-sugar pools extracted from treated COS-7 cells, capillary electrophoresis; format: cell-based, African green monkey
Experimental: Capillary electrophoresis (CE): CE was performed on a ProteomeLab PA800 (Beckman-Coulter) using fused silica capillaries of […]×44 cm (to detector). The running buffer was 40 mM Na2B4O7 (Sigma), pH 9.5, containing 1.0% (wv) polyethylene glycol (MW 20,000; Fluka) and filtered prior to use. The capillary was conditioned by washing with 1 N NaOH (2 min, 20 psi), 18 MΩ H2O (3 min, 20 psi) and running buffer (5 min, 40 psi). After injecting a short (15 nL) H2O plug, samples were electrostatically introduced and pre-concentrated at the anode by applying a potential of -0.5 kV for 10 s according to the field-amplified sample injection technique described by Chien and Burgi^39. Electrophoresis was carried out at a constant voltage of 30 kV and capillary temperature of 22° C. Electropherograms were derived by measuring the absorbance at 254 (+/−10) nm at a rate of 4 Hz. Peaks were integrated using 32 Karat 5.0 software (Beckman-Coulter) and all peaks were normalized to the GDP-Glc internal standard.
Extraction of nucleotide sugars from cell lysates: COS-7 cells, on 10 cm plates, were treated with 0, 50, 250 or 1000 μM Ac-5SGlcNAc for 24 h; each condition was performed in triplicate. Cells were washed gently with PBS prior to the addition of 1 mL PBS containing 10 mM EDTA. Cells were incubated at 37° C. for […], the cells scraped from the plate, and pelleted by centrifugation (1000 rpm, 10 min, 4° C.). Cell pellets were immediately lysed by the addition of 750 μL 75% (vv) ethanol (−20° C.) and sonicated using a W-375 ultrasonic processor (Heat Systems Ultrasonics, Inc.). Insoluble material was removed by centrifugation (14,000 rpm, 15 min, 4° C.) and the supernatant was snap frozen and lyophilized^44,45. The crude extract was spiked with GDP-Glc (200 pmol) as an internal standard, dissolved in 0.5 mL 18 MΩ H2O and nucleotide sugars extracted using Envi-Carb graphite solid-phase extraction cartridges (200 mg) (Supelco) as described by Räbinä et al^38. Briefly, Envi-Carb cartridges were conditioned with 80% (vv) CH3CN and 20% 0.1% (vv) TFA (3 mL), followed by 18 MΩ H2O (6 mL), before samples were applied. After passing the samples through the SPE cartridge, the cartridge was sequentially washed with 2 mL of each of 18 MΩ H2O, 25% (vv) CH3CN, and 50 mM triethylammonium acetate (TEAA), pH 7.0. Sugar nucleotides were eluted with 3×1 mL 25% CH3CN in 50 mM TEAA, pH 7.0, passed through a 0.22 μm filter (Millipore), lyophilized, and stored at −20° C. until analysis. Extracted sugar nucleotides were dissolved in 200 μL 18 MΩ H2O and an aliquot was diluted 1:4 prior to characterization by CE using a method adapted from Feng et al^46.

[3] = tested on: Primary CLL cells; assay: Primary CLL cells, proliferation and toxicity with or without cytokine stimulation; format: cell-based; conditions: 5 days
Experimental: Primary CLL cells, obtained from Dr. David Spaner at the University of Toronto, were tested for their response to Ac-5SGlcNAc (9). Cells were plated at a confluency of 1 million cells/mL, and treated with between 0-250 μM 9, in the presence or absence of cytokine (1000 U/mL IL-2 and 1 μg/mL Resiquimod) stimulation to mimic cancer progression. Cells were observed over the course of 5 days, and harvested after this time into SDS-PAGE loading buffer before being subjected to western blotting.

[4] = tested on: N-glycosylation of IgG from mouse hybridoma cell line; assay: Lectin blots of IgG immunoprecipitated from treated mouse hybridoma cells; format: cell-based; conditions: 0-1000 μM, 24 h

## CC(=O)NC1C(OC(C)=O)SC(COC(C)=O)C(OC(C)=O)C1OC(C)=O [Compound 9, N-Acetyl-1,3,4,6-tetra-O-acetyl-α-D-5-thio-glucosamine]
[1]
  glycosylation by lectin blots (ConA, GNA, PHA-L, SNA, MAA): All lectins tested showed no change in glycosylation
[2]; 50 μM
  UDP-GlcNAc levels relative to basal: more than 60 % of basal levels
[2]; COS-7, 0-1000 μM, 24 h
  UDP-Glc and UDP-Gal levels in cells: uridine diphosphoglucose and uridine diphosphogalactose levels are unaffected
  UDP-GlcNAc levels in cells: small decrease in UDP-GlcNAc levels
  amount of UDP-5SGlcNAc in cells: dose dependent increase in the amount of UDP-5SGlcNAc in cells
[3]; 0-250 μM, unstimulated or stimulated
  toxicity to cells: not toxic to either unstimulated or stimulated cells
[3]; 50 μM and higher, IL-2 and Resiquimod stimulation
  proliferation of cytokine-stimulated cells: the proliferation that was obvious in untreated stimulated cells was absent
[4]
  GNA and ConA reactivity of hybridoma IgG: slight decrease in GNA and ConA reactivity when using a very high dose
